Test results as given in patent US7049334B2, “Enhancement of learning and memory and treatment of amnesia” (priority 2001, dated 2006).
Values joined by “and” are separate entries in the source; they are usually repeats but may differ in a detail not shown here. Equal values may be shown once.

Tests used:
[1] = test system: rats (passive avoidance learning); assay: One-trial step-through passive inhibitory avoidance task; type: in vivo
Source text: Passive Avoidance and active avoidance task: Rats were trained and tested on a one-trial step-through passive inhibitory avoidance task with a procedure as described in Liang et al. (1998, Chin. J. Physiol. 41: 33–44). Briefly, an apparatus was a trough-shape alley divided by a sliding door into a well-lit safe compartment and a dark shock compartment. A rat was placed in the lit side facing away from the door. As the rat turned around, the door was opened. After the rat stepped into the dark compartment, it received an inescapable footshock via a constant current shocker controlled by a timer (Lafayette Instruments, Model 80240 and Model 58010, Indiana, USA). After administration of the foot-shock, the rat was removed from the alley and returned to its home cage. In a retention test given 24 hrs or 10 days later, the rat was reintroduced into the alley and the latency of stepping into the shock compartment with all four feet was taken as a retention score.
The amygdala is also implicated in learning and memory. Studies have shown that this brain structure is particularly involved in processing affective information. See, e.g., Cahill and McGaugh (1990) Behav. Neurosci. 104: 532–543; and Gilbert et al. (1991) Behav. Neurosci. 105: 533–561. It has been reported that nitric oxide is also involved in activity-dependent synaptic plasticity and passive avoidance learning in amygdaloid nucleus. See, e.g., Bernabeu et al. (1995) NeuroReport 6: 1498–1500; Watanabe et al. (1995) Brain Res. 688: 233–236; and Teledgy and Kokavszky (1997) Neuropharmacology 36: 1583–1587. The effect of Compound 1 on passive avoidance learning was studied. Compound 1 was injected (i.p., 1 mg/kg) 10 min before foot-shock training. […] The memory lasts for several days. The retention scores were very high even if tested on day 10. There were much more rats which had retention latencies longer than 5 min in Compound 1-treated rats (2 out of 15 in a control group and 11 out of 12 in a Compound 1-treated group, respectively) tested on both day-1 and day-10. When the Compound 1 was mixed with 1.25% CMC and delivered to stomach directly (10 mg/kg) before foot-shock. The retention test was performed 1 day and 10 days later, respectively. […] Rats of 1-year-old were chosen for this experiment. Compound 1 (1 mg/kg) was i.p. injected 10 min before foot-shock. The retention test was performed 1 day and 10 days later, respectively.

mice (motor learning) = assay: Rotorod test; type: in vivo; settings: i.p. 1 mg/kg 20 min before first trial, 28 rpm
Method: Rotorod Test: This experiment was performed with mice (male, 20–25 gm). A rotorod apparatus was a plastic cylindrical rod (3 cm in diameter×13 cm in length). The rod was supported at the ends by two walls and was 25 cm from the base of the walls. The walls at the ends of the rod were high enough so that the mice cannot climb off the rod. Three trials were performed for each experiment. Compound 1 (1 mg/kg) or vehicle was i.p. injected 20 min before the first trial. For each trial of the rotorod test, the mice were placed on the rod and timed until they fell off the rod. They were timed up to a maximum of 3 min. The interval was 10 min. The rod was turned by an electric motor at 28 rpm.
Cerebellar nitric oxide has been also reported to be involved in LTD and motor learning. See, e.g., Li et al. (1995) J. Neurophysiol. 74: 489–494. Compound 1 improving motor learning was studied. Mice were chosen for this kind of experiment. […] The performance of control mice got improvement with increasing trial numbers, with a better improvement at the third trial. […] It is obvious that Compound 1 can also improve motor learning by mainly acting on the cerebellum.

[2] = aged rats (1-year-old), i.p. 1 mg/kg 10 min before foot-shock
[3] = aged rats (1-year-old), i.p. 1 mg/kg 10 min before foot-shock, 1 mg/kg
[4] = oral 10 mg/kg in 1.25% CMC before foot-shock
[5] = oral 10 mg/kg in 1.25% CMC before foot-shock, ceiling 300 s or 600 s, 10 mg/kg

OCc1ccc(-c2nn(Cc3ccccc3)c3ccccc23)o1 [Compound 1, 1-benzyl-3-(5′-hydroxymethyl-2′-furyl)-indazole]
enhancement effect induced by Compound 1, with KT5823 ([1]; KT5823 i.c.v. 0.2 nmole): significantly antagonized | enhancement effect induced by Compound 1, with L-NAME ([1]; L-NAME i.c.v. 1 mmole): significantly antagonized | retention scores when given before context training ([1]; administered 10 min before the context training instead of the foot-shock): prolonged the retention scores | Retention Scores Day-1, mean ± std [1, 2]: mean ± std 233.0 ± 47.3 sec | Retention Scores Day-10, mean ± std [1, 2]: 181.4 ± 55.7 s | Retention Scores Day-1, individual rats [1, 3]: >300 sec (3×) and 207.1 sec and 58.1 sec | Retention Scores Day-10, individual rats [1, 3]: 252.2 s and 255.9 s and 85.8 s and >300 s and 12.9 s | retention latencies in the lighted compartment ([1]; i.p. 1 mg/kg 10 min before foot-shock training): markedly prolonged | rats with retention latencies longer than 5 min ([1]; i.p. 1 mg/kg, tested on both day-1 and day-10): 11 out of 12 | effect on avoidance behavior when injected after foot-shock ([1]; injected 30 min after foot-shock): did not exert any effect | Retention Scores Day-1, mean ± std [1, 4]: mean ± std 369.2 ± 70.2 sec | Retention Scores Day-10, mean ± std [1, 4]: 437.3 ± 62.4 s | Retention Scores Day-1, individual rats [1, 5]: >600 sec (4×) and 15.0 sec and >300 sec (4×) and 77.1 sec | Retention Scores Day-10, individual rats [1, 5]: 454.0 sec and >600 sec (4×) and 15.0 sec and 207.1 sec and 453.2 sec and 343.2 sec and 500.2 sec | motor coordination on a turning rotorod (mice (motor learning)): significantly improved motor coordination
